From patent publication US20060025419A1, “Imidazoquinoxaline compound for the treatment of melanoma” (priority 2004, published 2006) come the findings set out here.

One experiment concerns SK-Mel-5 tumors. Put plainly: Melanoma tumor growth in nude mice. To be noted: 21 days. Format: in vivo. How it is done: FIGS. 1A-1E. […] After 72 h treatment, cells were photographed. […] 2×10^6 SK-Mel-5 melanoma cells were subcutaneously inoculated into nude mice (n=5 mice per group). […] Tumor size was measured using an electronic digital caliper at intervals of 4 days. Tumor volume was calculated and statistically analyzed.
Animal experimentation was undertaken according to protocols approved by the Institutional of Animal Care and Use Committee at Vanderbilt University. […] Tumor size was measured with an electronic digital caliper. Tumor volume was calculated by width^2×length×0.52 and expressed as mean±SD mm^3.

The next experiment relates to NF-κB/p65. Put plainly: Time-lapse microscopy of GFP-p65 translocation. To be noted: SK-Mel-5, 10 μM, 7 h observation. The class given is cell-based, human.

Description for NF-κB/p65: SK-Mel-5 cells (2×10^5 ) were cultured in 25 cm^2 culture flasks (Corning Inc., Corning, N.Y.) and transfected with 0.5 μg of GFP-p65 expression vector DNA for 14 h. […] The expression and localization of EGFP-p65 in live cells was recorded using time-lapse video microscopy (FIGS. 3A). The cytosolic and nuclear green fluorescent density was quantified by the Openlab software program (FIGS. 3B).
To test this possibility, SK-Mel-5 cells were transfected with a GFP-p65 expression vector to monitor the nuclear translocation in living cells. […] Time-lapse video microscopy was used to follow the localization of GFP-p65 in live cells. Images were captured at one-hour intervals over a 7 h observation period. The cytosol versus nuclear green fluorescent density was quantified by the Openlab software program.

`Cc1ccc2nc(NCCN)c3ncc(C)n3c2c1.Cl` [BMS-345541, 4(2′-aminoethyl)amino-1,8-dimethylimidazo(1,2-a)quinoxaline]: in the experiment on SK-Mel-5 tumors (10, 25 and 75 mg/kg orally once daily), the “SK-Mel-5 tumor growth (FIG. 1B)” value is “effectively inhibits SK-Mel-5 tumor growth in a dose-dependent manner”. Besides, the “inhibition of tumor growth” value in the experiment with SK-Mel-5 tumors (SK-Mel-5 tumors, 75 mg/kg orally once daily, vs vehicle) is recorded as 86±2.8%. Further, the GFP-p65 localization entry in the experiment with NF-κB/p65 is on record as “consistently retained GFP-p65 in the cytoplasm”.
